Assay results: patent US12528790B2, “Amide derivative having antiviral activity” (Shionogi & Co., Ltd., priority 2020, dated 2026)
Where two headings read alike, the source gives them in different places.

Columns and labels:
[1] = test system: RSV A2 strain; experiment: In vitro CPE (CytoPathic Effect) inhibition effect evaluation test, RSV type A; assay type: cell-based
Summary of the method: (§1)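 HEp-2 cells (2.4×10^5 cells/mL, 2% FBS E-MEM) were infected with RSV alongside 3-fold compound dilutions and incubated at 37 °C, 4 days for A2 and 5 days for B Wash/18537. Viable cells quantified by CellTiter-Glo 2.0 luminescence; EC50 by nonlinear regression as 50% CPE inhibition.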

[2] = test system: RSV B (Wash/18537 strain); experiment: In vitro CPE (CytoPathic Effect) inhibition effect evaluation test, RSV type B; assay type: cell-based
Summary of the method: as §1

[3] = inhibitory effect against RSV type A (RSV A2 strain), HEp-2 cells, CPE inhibition, read-out: EC50
[4] = inhibitory effect against RSV type B, CPE inhibition, read-out: EC50
[5] = human respiratory syncytial virus, inhibitory effect against RSV type A (RSV A2 strain), HEp-2 cells, CPE inhibition, read-out: EC50
[6] = human respiratory syncytial virus, inhibitory effect against RSV type B, CPE inhibition, read-out: EC50
[7] = human respiratory syncytial virus, HEp-2, 96 h, read-out: EC50, inhibitory effect against RSV type A (CPE inhibition)
[8] = human respiratory syncytial virus, HEp-2, 120 h, HEp-2 cells, RSV B (Wash/18537 strain), 5 days, CellTiter-Glo, read-out: EC50, inhibitory effect against RSV type B (CPE inhibition)

| SMILES | EC50 [1, 5] [nM] | EC50 [2, 6] [nM] | other results |
| --- | --- | --- | --- |
| COc1ccc2c(c1)C1(CCOCC1)CN2c1ncc(C(=O)NC2(C(=O)O)C3CC4CC(C3)CC2C4)c(C(F)(F)F)n1 (centres unmarked) [Compound I-80] | – | – | EC50 [1, 3]: < 10 nM; EC50 [2, 4]: < 10 nM |
| O=C(NC1(C(=O)O)CCCCC1)c1cnc(N2CC3(CCOCC3)c3cc(OC4CCN(c5ncccn5)CC4)ccc32)nc1C(F)(F)F [Compound I-81] | < 10 | < 10 | – |
| O=C(NC1(C(=O)O)C2CC3CC(C2)CC1C3)c1cnc(N2CC3(CCOCC3)c3cc(OC4CCN(c5ncccn5)CC4)ccc32)nc1C(F)(F)F (centres unmarked) [Compound I-82] | – | – | EC50 [1, 7]: 0.27 nM; EC50 [2, 8]: 0.34 nM |
| O=C(NC1(C(=O)O)C2CC3CC(C2)CC1C3)c1cnc(N2CC3(CCOCC3)c3cc(OCCC4CCOCC4)ccc32)nc1C(F)(F)F (centres unmarked) [Compound I-83] | – | – | EC50 [1, 3]: < 10 nM; EC50 [2, 4]: < 10 nM |
| O=C(NC1(C(=O)O)C2CC3CC(C2)CC1C3)c1cnc(N2CC3(CCOCC3)c3cc(OCCN4CCOCC4)ccc32)nc1C(F)(F)F (centres unmarked) [Compound I-86] | – | – | EC50 [1, 3]: < 10 nM; EC50 [2, 4]: < 10 nM |
| COc1nc(N2CCc3cc(OCCC4CCOCC4)ccc32)nc(C(F)(F)F)c1C(=O)NC1(C(=O)O)C2CC3CC(C2)CC1C3 (centres unmarked) [Compound I-88] | – | – | EC50 [1, 3]: < 10 nM; EC50 [2, 4]: 10 to 100 nM |
| COc1ccc2c(n1)C1(CCOCC1)CN2c1ncc(C(=O)NC2(C(=O)O)C3CC4CC(C3)CC2C4)c(C(F)(F)F)n1 (centres unmarked) [Compound I-91] | – | – | EC50 [1, 3]: < 10 nM; EC50 [2, 4]: 10 to 100 nM |
| O=C(NC1(C(=O)O)C2CC3CC(C2)CC1C3)c1cnc(N2CC3(CCOCC3)c3cc(OC4CCN(C5CC5)CC4)ccc32)nc1C(F)(F)F (centres unmarked) [Compound I-92] | – | – | EC50 [1, 3]: < 10 nM; EC50 [2, 4]: < 10 nM |
| Cc1ccc2c(c1)C1(CCOCC1)CN2c1ncc(C(=O)NC2(C(=O)O)C3CC4CC(C3)CC2C4)c(C(F)(F)F)n1 (centres unmarked) [Compound I-109] | – | – | EC50 [1, 3]: < 10 nM; EC50 [2, 4]: 10 to 100 nM |
| NC(=O)C1(NC(=O)c2cnc(N3CC4(CCOCC4)c4cc(OC5CCN(c6ncccn6)CC5)ccc43)nc2C(F)(F)F)C2CC3CC(C2)CC1C3 (centres unmarked) [Compound I-135] | < 10 | 10 to 100 | – |
| O=C(NC1(C(=O)O)C2CC3CC(C2)CC1C3)c1cnc(-c2cn(C3CCOCC3)c3cc(OC4CCN(c5ncccn5)CC4)ccc23)nc1C(F)(F)F (centres unmarked) [Compound I-146] | < 10 | < 10 | – |
| O=C(NC1(C(=O)O)C2CC3CC(C2)CC1C3)c1ccc(-c2cn(C3CCOCC3)c3cc(OC4CCN(c5ncccn5)CC4)ccc23)nc1C(F)(F)F (centres unmarked) [Compound I-147] | < 10 | < 10 | – |
| O=C(NC1(C(=O)O)C2CC3CC(C2)CC1C3)c1ccc(-c2cn(-c3ccccc3)c3cc(OC4CCN(c5ncccn5)CC4)ccc23)nc1C(F)(F)F (centres unmarked) [Compound I-148] | – | – | EC50 [1, 7]: 1.5 nM; EC50 [2, 8]: 2.8 nM |
| O=C(NC1(C(=O)O)C2CC3CC(C2)CC1C3)c1ccc(-c2cn(C3COC3)c3cc(OC4CCN(c5ncccn5)CC4)ccc23)nc1C(F)(F)F (centres unmarked) [Compound I-151] | < 10 | < 10 | – |
| O=C(NC1(C(=O)O)C2CC3CC(C2)CC1C3)c1ccc(-c2cn(C(=O)OC3CCOCC3)c3cc(OC4CCN(c5ncccn5)CC4)ccc23)nc1C(F)(F)F (centres unmarked) [Compound I-152] | < 10 | < 10 | – |
| O=C(N[C@@]1(C(=O)O)C2CC3C[C@@H]1C[C@](F)(C3)C2)c1cnc(N2CCc3cc(OCCC4CCOCC4)ccc32)nc1C(F)(F)F [Compound I-155] | < 10 | 10 to 100 | – |
| O=C(NC1(C(=O)O)C2CC3CC(C2)CC1C3)c1ccc(-c2nn(C3CCOCC3)c3cc(OC4CCN(c5ncccn5)CC4)ccc23)nc1C(F)(F)F (centres unmarked) [Compound I-158] | < 10 | < 10 | – |
| O=C(NC1(C(=O)O)C2CC3CC(C2)CC1C3)c1cnc(-c2nn(C3CCOCC3)c3cc(OC4CCN(c5ncccn5)CC4)ccc23)nc1C(F)(F)F (centres unmarked) [Compound I-159] | – | – | EC50 [1, 7]: 0.88 nM; EC50 [2, 8]: 3 nM |
| CN(C)CCCc1nc(N2CCc3cc(OCCC4CCOCC4)ccc32)nc(C(F)(F)F)c1C(=O)NC1(C(=O)O)C2CC3CC(C2)CC1C3 (centres unmarked) [Compound I-160] | 10 to 100 | 100 to 5000 | – |
| O=C(NC1(C(=O)O)C2CC3CC(C2)CC1C3)c1ccc(-c2cn(C3CCC(F)(F)CC3)c3cc(OC4CCN(c5ncccn5)CC4)ccc23)nc1C(F)(F)F (centres unmarked) [Compound I-162] | – | – | EC50 [1, 7]: 0.88 nM; EC50 [2, 8]: 3.3 nM |
| O=C(N[C@]1(C(=O)O)[C@@H]2CC3C[C@H]1C[C@@](F)(C3)C2)c1cnc(N2CC3(CCOCC3)c3cc(OC4CCN(c5ncccn5)CC4)ccc32)nc1C(F)(F)F [Compound I-165] | – | – | EC50 [1, 7]: 0.37 nM; EC50 [2, 8]: 0.62 nM |
| O=C(NC1(C(=O)O)C2CC3CC(C2)CC1C3)c1ccc(-c2cn(-c3ccccn3)c3cc(OC4CCN(c5ncccn5)CC4)ccc23)nc1C(F)(F)F (centres unmarked) [Compound I-175] | < 10 | < 10 | – |

| SMILES | EC50 [1, 5] [nM] | EC50 [2, 6] [nM] | other results |
| --- | --- | --- | --- |
| O=C(NC1(C(=O)O)C2CC3CC(C2)CC1C3)c1ccc(-c2cn(-c3ccncc3)c3cc(OC4CCN(c5ncccn5)CC4)ccc23)nc1C(F)(F)F (centres unmarked) [Compound I-176] | < 10 | < 10 | – |
| O=C(NC1(C(=O)O)C2CC3CC(C2)CC1C3)c1ccc(-c2cn(-c3cccnc3)c3cc(OC4CCN(c5ncccn5)CC4)ccc23)nc1C(F)(F)F (centres unmarked) [Compound I-177] | < 10 | < 10 | – |
| O=C(NC1(C(=O)O)C2CC3CC(C2)CC1C3)c1cnc(-c2c3ccc(OC4CCN(c5ncccn5)CC4)cc3nn2C2CCOCC2)nc1C(F)(F)F (centres unmarked) [Compound I-182] | – | – | EC50 [1, 7]: 0.39 nM; EC50 [2, 8]: 2.1 nM |
| CN(C)CCCc1nc(N2CC3(CCOCC3)c3cc(OC4CCN(c5ncccn5)CC4)ccc32)nc(C(F)(F)F)c1C(=O)NC1(C(=O)O)C2CC3CC(C2)CC1C3 (centres unmarked) [Compound I-183] | < 10 | 10 to 100 | – |
| O=C(NC1(C(=O)O)C2CC3CC(C2)CC1C3)c1cnc(N2CC3(CCOCC3)c3cc(OC4CCN(C5COC5)CC4)ccc32)nc1C(F)(F)F (centres unmarked) [Compound I-184] | < 10 | < 10 | – |
| O=C(NC1(C(=O)O)C2CC3CC(C2)CC1C3)c1cnc(N2CC3(CCOCC3)c3cc(O[C@H]4CC[C@H](n5cccn5)CC4)ccc32)nc1C(F)(F)F (some centres unmarked) [Compound I-193] | < 10 | < 10 | – |
| O=C(NC1(C(=O)O)C2CC3CC(C2)CC1C3)c1cnc(N2CC3(CCOCC3)c3cc(OC4CCS(=O)(=O)CC4)ccc32)nc1C(F)(F)F (centres unmarked) [Compound I-203] | < 10 | < 10 | – |
| CN1CCN(CCOc2ccc3c(c2)C2(CCOCC2)CN3c2ncc(C(=O)NC3(C(=O)O)C4CC5CC(C4)CC3C5)c(C(F)(F)F)n2)CC1 (centres unmarked) [Compound I-204] | < 10 | 10 to 100 | – |
| O=C(NC1(C(=O)O)C2CC3CC(C2)CC1C3)c1cnc(N2CC3(CCCCC3)c3cc(OC4CCN(c5ncccn5)CC4)ccc32)nc1C(F)(F)F (centres unmarked) [Compound I-214] | < 10 | < 10 | – |
| N#C[C@]12CC3C[C@H](C1)[C@](NC(=O)c1cnc(N4CC5(CCOCC5)c5cc(OC6CCN(c7ncccn7)CC6)ccc54)nc1C(F)(F)F)(C(=O)O)[C@@H](C3)C2 [Compound I-218] | < 10 | < 10 | – |
| O=C(NC1(C(=O)O)C2CC3CC(C2)CC1C3)c1ccc(-c2cn(C3CCC(F)(F)CC3)c3cc(OC4CCN(c5ncccn5)CC4)c(F)cc23)nc1C(F)(F)F (centres unmarked) [Compound I-221] | < 10 | 100 to 5000 | – |
| O=C(NC1(C(=O)O)C2CC3CC(C2)CC1C3)c1ccc(-c2cn(C3CCC(F)(F)CC3)c3c(F)c(OC4CCN(c5ncccn5)CC4)ccc23)nc1C(F)(F)F (centres unmarked) [Compound I-227] | < 10 | < 10 | – |
| O=C(NC1(C(=O)O)C2CC3CC(C2)CC1C3)c1cnc(-c2cn(C3CCC(F)(F)CC3)c3nc(OC4CCN(c5ncccn5)CC4)ccc23)nc1C(F)(F)F (centres unmarked) [Compound I-228] | – | – | EC50 [1, 7]: 1.3 nM; EC50 [2, 8]: 36 nM |
| O=C(NC1(C(=O)O)C2CC3CC(C2)CC1C3)c1cnc(-c2cn(C3CCC(F)(F)CC3)c3cc(OC4CCN(C5COC5)CC4)ccc23)nc1C(F)(F)F (centres unmarked) [Compound I-234] | < 10 | 10 to 100 | – |
| O=C(NC1(C(=O)O)C2CC3CC(C2)CC1C3)c1cnc(-c2cn(C3CCC(F)(F)CC3)c3cc(OC4CCN(c5ncc(F)cn5)CC4)ccc23)nc1C(F)(F)F (centres unmarked) [Compound I-237] | < 10 | < 10 | – |
| O=C(NC1(C(=O)O)C2CC3CC(C2)CC1C3)c1cnc(-c2cn(C3CCC(F)(F)CC3)c3cc(OC4CCN(c5ncccn5)CC4)ccc23)nc1C(F)(F)F (centres unmarked) [Compound I-239] | < 10 | < 10 | – |
| Cc1nc(-c2cn(C3CCOCC3)c3cc(OC4CCN(c5ncccn5)CC4)ccc23)nc(C(F)(F)F)c1C(=O)NC1(C(=O)O)C2CC3CC(C2)CC1C3 (centres unmarked) [Compound I-245] | < 10 | < 10 | – |
| O=C(NC1(C(=O)O)C2CC3CC(C2)CC1C3)c1cnc(-c2cn(C3CCC(F)(F)CC3)c3cc(OC4CCN(C5CC(F)(F)C5)CC4)ccc23)nc1C(F)(F)F (centres unmarked) [Compound I-249] | < 10 | 10 to 100 | – |
| COC1CC(n2cc(-c3ccc(C(=O)NC4(C(=O)O)C5CC6CC(C5)CC4C6)c(C(F)(F)F)n3)c3ccc(OC4CCN(c5ncccn5)CC4)cc32)C1 (centres unmarked) [Compound I-250] | < 10 | < 10 | – |
| O=C(NC1(C(=O)O)C2CC3CC(C2)CC1C3)c1cnc(-c2cn(C3CCC(F)(F)CC3)c3cc(OC4CCC5(CC4)COC5)ccc23)nc1C(F)(F)F (centres unmarked) [Compound I-256] | < 10 | < 10 | – |
| O=C(NC1(C(=O)O)C2CC3CC(C2)CC1C3)c1cnc(-c2cn(C3CCC(F)(F)CC3)c3cc(OC4CCN(c5ncccn5)CC4)ncc23)nc1C(F)(F)F (centres unmarked) [Compound I-268] | – | – | EC50 [1, 7]: 1.4 nM; EC50 [2, 8]: 4.3 nM |
